Data reported in ChEMBL document CHEMBL4017496 (J Med Chem, 2017).
The source made the active and inactive calls. The rule behind the calls is not given here.

What was measured:
[1] = biological target: T1, Peroxisome proliferator-activated receptor alpha (Homo sapiens) (UniProt Q07869); experiment: Displacement of Fluormone-Pan-PPAR Green from human GST-tagged PPARalpha LBD at 20 uM by TR-FRET assay relative to control
T1 sequence (whole entry): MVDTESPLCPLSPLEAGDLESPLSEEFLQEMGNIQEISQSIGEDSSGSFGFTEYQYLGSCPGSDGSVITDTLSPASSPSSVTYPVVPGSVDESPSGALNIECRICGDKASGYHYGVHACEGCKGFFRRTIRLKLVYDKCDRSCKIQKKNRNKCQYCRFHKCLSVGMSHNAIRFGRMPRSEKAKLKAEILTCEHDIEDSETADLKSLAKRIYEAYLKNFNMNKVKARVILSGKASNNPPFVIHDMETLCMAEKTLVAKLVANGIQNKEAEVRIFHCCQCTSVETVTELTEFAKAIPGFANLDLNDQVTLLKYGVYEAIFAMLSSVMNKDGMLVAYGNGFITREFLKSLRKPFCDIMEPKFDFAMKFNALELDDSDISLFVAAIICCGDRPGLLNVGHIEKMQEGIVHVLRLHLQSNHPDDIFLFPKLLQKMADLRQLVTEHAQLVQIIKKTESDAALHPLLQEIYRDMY

[2] = biological target: T2, Peroxisome proliferator-activated receptor gamma (Homo sapiens, UniProt P37231); experiment: (§1) Displacement of Fluormone-Pan-PPAR Green from human GST-tagged PPARgamma LBD by TR-FRET assay
T2 sequence (P37231 whole entry): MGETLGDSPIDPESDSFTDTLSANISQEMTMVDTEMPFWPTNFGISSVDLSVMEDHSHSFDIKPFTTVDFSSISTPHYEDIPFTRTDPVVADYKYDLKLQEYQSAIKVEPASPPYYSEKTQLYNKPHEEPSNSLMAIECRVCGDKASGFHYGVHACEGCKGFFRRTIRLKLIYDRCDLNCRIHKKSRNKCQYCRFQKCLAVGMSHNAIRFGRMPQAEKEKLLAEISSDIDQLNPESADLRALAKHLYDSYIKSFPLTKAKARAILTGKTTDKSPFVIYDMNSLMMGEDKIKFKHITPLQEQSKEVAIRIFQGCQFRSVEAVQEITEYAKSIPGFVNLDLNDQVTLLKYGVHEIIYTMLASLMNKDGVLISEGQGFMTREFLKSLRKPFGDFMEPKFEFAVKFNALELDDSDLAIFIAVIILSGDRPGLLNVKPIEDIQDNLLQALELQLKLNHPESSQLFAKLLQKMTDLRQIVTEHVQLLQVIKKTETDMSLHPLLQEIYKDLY

[3] = biological target: T3, Peroxisome proliferator-activated receptor delta (Homo sapiens, UniProt Q03181); experiment: Displacement of Fluormone-Pan-PPAR Green from human GST-tagged PPARdelta LBD by TR-FRET assay
T3 sequence (Q03181 whole entry): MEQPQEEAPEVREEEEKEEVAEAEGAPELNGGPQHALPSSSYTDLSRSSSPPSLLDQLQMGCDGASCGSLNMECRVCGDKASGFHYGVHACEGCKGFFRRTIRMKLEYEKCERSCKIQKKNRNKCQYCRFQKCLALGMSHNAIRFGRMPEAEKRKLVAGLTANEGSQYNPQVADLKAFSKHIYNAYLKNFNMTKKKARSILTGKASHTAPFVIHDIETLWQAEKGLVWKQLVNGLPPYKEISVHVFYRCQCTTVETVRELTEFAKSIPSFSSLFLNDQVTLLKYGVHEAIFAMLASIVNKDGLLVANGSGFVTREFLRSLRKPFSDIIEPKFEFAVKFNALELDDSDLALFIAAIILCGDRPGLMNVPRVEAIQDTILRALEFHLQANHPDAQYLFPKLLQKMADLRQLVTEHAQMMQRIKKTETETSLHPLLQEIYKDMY

[4] = Induction of adipogenesis in human bone marrow-derived mesenchymal stem cells assessed as adiponectin level at 20 uM measured on day 7 after 48 hrs by ELISA; format: functional, Mesenchymal stem cell
[5] = Induction of adipogenesis in human bone marrow-derived mesenchymal stem cells assessed as adiponectin level at 4 uM measured on day 7 after 48 hrs by ELISA; format: functional, Mesenchymal stem cell
[6] = tested on: Mesenchymal stem cell; experiment: Induction of adipogenesis in human bone marrow-derived mesenchymal stem cells assessed as adiponectin level at 20 to 30 uM measured on day 7 after 48 hrs by ELISA; format: functional, cell-based
[7] = biological target: T4, Peroxisome proliferator-activated receptor delta (Homo sapiens) (UniProt Q03181); experiment: Displacement of Fluormone-Pan-PPAR Green from human GST-tagged PPARdelta LBD at 10 uM by TR-FRET assay relative to control
T4 sequence (whole entry): T3 sequence (Q03181 whole entry)

[8] = biological target: T5, Peroxisome proliferator-activated receptor gamma (Homo sapiens) (UniProt P37231); experiment: Displacement of Fluormone-Pan-PPAR Green from human GST-tagged PPARgamma LBD at 20 uM by TR-FRET assay relative to control
T5 sequence (whole entry): T2 sequence (P37231 whole entry)

[9] = biological target: T6, Adenosine receptor A3 (Homo sapiens, UniProt P0DMS8); experiment: Displacement of [125I]I-AB-MECA from human A3 adenosine receptor expressed in CHO cell membranes after 60 mins by gamma counting method
T6 sequence (P0DMS8 whole entry): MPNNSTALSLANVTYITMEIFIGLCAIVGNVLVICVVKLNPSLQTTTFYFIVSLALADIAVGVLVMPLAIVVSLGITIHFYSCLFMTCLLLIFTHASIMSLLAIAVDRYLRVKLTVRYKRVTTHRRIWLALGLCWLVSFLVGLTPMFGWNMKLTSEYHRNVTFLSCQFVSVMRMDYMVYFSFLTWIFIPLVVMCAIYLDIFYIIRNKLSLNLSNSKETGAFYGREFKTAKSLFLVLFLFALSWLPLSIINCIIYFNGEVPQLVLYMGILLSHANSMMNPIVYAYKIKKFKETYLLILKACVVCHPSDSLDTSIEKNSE

[10] = Induction of adipogenesis in mouse 7F2 cells transfected with human AR assessed as increase in […] at 1 to 10 uM after 7 to 12 days by staining based oil red O phase contrast microscopic method relative to control; format: functional
[11] = tested on: Mesenchymal stem cell; experiment: Induction of adipogenesis in human bone marrow-derived mesenchymal stem cells assessed as increase in adiponectin production at 20.4 uM after 7 days in presence of IDX; format: functional, cell-based
[12] = tested on: Mus musculus; experiment: Antidiabetic activity in STZ-induced diabetic C57BL/6J mouse assessed as insulin sensitivity by measuring reduction of serum glucose levels administered po for 5 days measured at 1 and 4 hrs post last dose; format: functional, organism-based
[13] = tested on: Mus musculus; experiment: Antidiabetic activity in STZ-induced diabetic C57BL/6J mouse assessed as insulin sensitivity by measuring reduction of serum glucose levels at 20 mg/kg,po for 5 days measured at 1 and 4 hrs post last dose; format: functional, organism-based
[14] = biological target: T5, Peroxisome proliferator-activated receptor gamma (Homo sapiens); experiment: as §1
[15] = biological target: T5, Peroxisome proliferator-activated receptor gamma (Homo sapiens); experiment: Transactivation of human PPARgamma expressed in African green monkey CV1 cells at 10 uM by luciferase reporter gene assay relative to control; format: cell-based
[16] = biological target: T4, Peroxisome proliferator-activated receptor delta (Homo sapiens); experiment: Transactivation of human GST-tagged PPARdelta LBD assessed as fluorescein-C33 coactivator recruitment at 10 uM by TR-FRET assay
[17] = biological target: T4, Peroxisome proliferator-activated receptor delta (Homo sapiens); experiment: Transrepression of human GST-tagged PPARdelta LBD assessed as induction of corepressor SMRT-ID2 peptide recruitment by TR-FRET assay
[18] = biological target: Peroxisome proliferator-activated receptor delta (Homo sapiens) (UniProt Q03181); experiment: Antagonist activity at human GST-tagged PPARdelta LBD assessed as reduction in GW501516-induced fluorescein-C33 coactivator recruitment at 1 uM by TR-FRET assay relative to control

O=C(NC1CCC1)[C@H]1S[C@@H](n2cnc3c(NCc4cccc(I)c4)ncnc32)[C@H](O)[C@@H]1O
inhibition [1]: 11.7% | Ki [2]: 0.17 µM | Ki [3]: 2.61 µM | Activity [4]: 633 pg/mL | Activity [5]: 323 pg/mL

CNC(=O)[C@@]12C[C@@H]1[C@@H](n1cnc3c(NCc4cccc(Cl)c4)nc(C#Cc4ccc(F)c(F)c4)nc31)[C@H](O)[C@@H]2O
Activity [6]: inactive

COc1ccc(Cl)cc1C(=O)NCCc1ccc(S(=O)(=O)NC(=O)NC2CCCCC2)cc1 [GLYBURIDE]
Activity [4]: 1000 pg/mL | Activity [5]: 838 pg/mL | inhibition [7]: 21.5%

C[C@@H]1C[C@H]2[C@@H]3CCC4=CC(=O)C=C[C@]4(C)[C@@]3(F)[C@@H](O)C[C@]2(C)[C@@]1(O)C(=O)CO [DEXAMETHASONE]
Activity [4]: 100 pg/mL | Activity [5]: 100 pg/mL

O[C@@H]1[C@H](O)CS[C@H]1n1cnc2c(NCc3cccc(Cl)c3)nc(Cl)nc21
inhibition [1]: 4.5% | inhibition [8]: 40.8% | Activity [4]: 442 pg/mL | Activity [5]: 196 pg/mL

CC(C)Cn1c(=O)n(C)c(=O)c2nc[nH]c21 [ISOBUTYLMETHYLXANTHINE]
Activity [4]: 100 pg/mL | Activity [5]: 100 pg/mL

CNC(=O)[C@H]1S[C@@H](n2cnc3c(NCc4cccc(I)c4)nc(Cl)nc32)[C@H](O)[C@@H]1O
inhibition [1]: 37.8% | Ki [2]: 4.6 µM | Ki [3]: 0.16 µM | Activity [4]: 738 pg/mL | Activity [5]: 131 pg/mL

O[C@@H]1[C@H](O)CS[C@H]1n1cnc2c(NCc3cccc(I)c3)ncnc21
Ki [9]: 0.0015 µM

O[C@@H]1[C@H](O)CS[C@H]1n1cnc2c(NCc3ccccc3Cl)nc(Cl)nc21
inhibition [1]: 19.2% | inhibition [8]: 19.2% | Ki [3]: 0.62 µM | Activity [4]: 268 pg/mL | Activity [5]: 107 pg/mL

O=C(NC1CC1)[C@H]1S[C@@H](n2cnc3c(NCc4cccc(I)c4)ncnc32)[C@H](O)[C@@H]1O
inhibition [1]: 37.6% | inhibition [8]: 49.1% | Ki [3]: 2.98 µM | Activity [4]: 249 pg/mL | Activity [5]: 174 pg/mL

CCNC(=O)[C@H]1S[C@@H](n2cnc3c(NCc4cccc(I)c4)ncnc32)[C@H](O)[C@@H]1O
inhibition [1]: 29.3% | inhibition [8]: 37.1% | Ki [3]: 3.15 µM | Activity [4]: 242 pg/mL | Activity [5]: 118 pg/mL

OC[C@H]1O[C@@H](n2cnc3c(NC4CCCC4)nc(Cl)nc32)[C@H](O)[C@@H]1O
Activity [10]: 20 - 30% | Activity [11]: inactive

CCNC(=O)[C@H]1O[C@@H](n2cnc3c(N)ncnc32)[C@H](O)[C@@H]1O [NECA]
Activity [10]: 20 - 30% | Activity [11]: inactive

CCCn1cc2c(nc(NC(=O)Nc3ccc(OC)cc3)n3nc(-c4ccco4)nc23)n1
Activity [6]: inactive

O[C@@H]1[C@H](O)CS[C@H]1n1cnc2c(NCc3cccc(I)c3)nc(Cl)nc21
Activity [12]: Dose-dependent effect | Activity [13]: Active | inhibition [14]: Dose-dependent effect | Ki [3]: 0.00483 µM | Activity [15]: 54.3% | Activity [16]: inactive | Activity [4]: 857 pg/mL | Activity [5]: 192 pg/mL | Activity [17]: Dose-dependent effect | inhibition [18]: 57%

CNC(=O)[C@H]1S[C@@H](n2cnc3c(NCc4cccc(I)c4)ncnc32)[C@H](O)[C@@H]1O
Ki [9]: 0.0003 µM | Activity [13]: Active | inhibition [1]: 13.5% | inhibition [8]: 46.9% | Ki [3]: 2.54 µM | Activity [15]: 46.9% | Activity [16]: inactive | Activity [4]: 343 pg/mL | Activity [5]: 126 pg/mL | Activity [17]: Active | inhibition [18]: 22%

Cc1c(C)c2c(c(C)c1O)CCC(C)(COc1ccc(CC3SC(=O)NC3=O)cc1)O2 (centres undefined)
inhibition [7]: 23.4%

O=C(NCC1CC1)[C@H]1S[C@@H](n2cnc3c(NCc4cccc(I)c4)ncnc32)[C@H](O)[C@@H]1O
inhibition [1]: 16.4% | Activity [4]: 490 pg/mL | Activity [5]: 242 pg/mL

CCNC(=O)[C@H]1O[C@@H](n2cnc3c(N)nc(NCCc4ccc(CCC(=O)O)cc4)nc32)[C@H](O)[C@@H]1O
Activity [11]: inactive
